Measured values: patent publication US6110962A, “11-aryl-benzo[B]naphtho[2,3-D]furans and 11-aryl-benzo[B]naphtho[2,3-D]thiophenes useful in the treatment of insulin resistance and hyperglycemia” (American Home Products Corporation, priority 1999, dated 2000)
Read-outs that look alike come from different tables or passages of the source.

Legend:
[1] = test system: diabetic (ob/ob) mice; assay: Blood glucose lowering activity in diabetic (ob/ob) mice; assay type: in vivo, mouse; settings: ob/ob mice; for change in vivo at 25 mg/kg / change in vivo at 75 mg/kg / change in vivo at 100 mg/kg / change in vivo at 10 mg/kg / change in vivo at 50 mg/kg: Mus musculus, po
Method: The blood glucose lowering activity of representative compounds of this invention were determined in an in vivo standard procedure using diabetic (ob/ob) mice. The procedures used and results obtained are briefly described below. The non-insulin dependent diabetic (NIDDM) syndrome can be typically characterizes by obesity, hyperglycemia, abnormal insulin secretion, hyperinsulinemia and insulin resistance. […] In each test procedure, mice [Male or female ob/ob (C57 B1/6J) and their lean litermates (ob+ or +/+, Jackson Laboratories) ages 2 to 5 months (10 to 65 g)] of a similar age were randomized according to body weight into 4 groups of 10 mice. The mice were housed 5 per cage and are maintained on normal rodent chow with water ad libitum. Mice received test compound daily by gavage (suspended in 0.5 ml of 0.5% methyl cellulose); dissolved in the drinking water; or admixed in the diet. […] The dose is calculated based on the fed weekly body weight and is expressed as active moiety. […] Control mice received vehicle only. On the morning of Day 4, 7 or 14 two drops of blood (approximetly 50 ul) were collected into sodium fluoride containing tubes either from the tail vein or after decapitation. For those studies in which the compound was administered daily by gavage the blood samples were collected two hours after compound administration. The plasma was isolated by centrifugation and the concentration of glucose is measured enzymatically on an Abbott V. P. Analyzer. […] Analysis of variance followed by Dunett's Comparison Test (one-tailed) are used to estimate the significant difference between the plasma glucose values from the control group and the individual compound treated groups (CMS SAS Release 5.18).

[2] = target: T1, Human recombinant PTP1B (Homo sapiens, UniProt P18031); assay type: biochemical; settings: read-out: IC50
T1 construct: made in house
T1 sequence (P18031 1-435): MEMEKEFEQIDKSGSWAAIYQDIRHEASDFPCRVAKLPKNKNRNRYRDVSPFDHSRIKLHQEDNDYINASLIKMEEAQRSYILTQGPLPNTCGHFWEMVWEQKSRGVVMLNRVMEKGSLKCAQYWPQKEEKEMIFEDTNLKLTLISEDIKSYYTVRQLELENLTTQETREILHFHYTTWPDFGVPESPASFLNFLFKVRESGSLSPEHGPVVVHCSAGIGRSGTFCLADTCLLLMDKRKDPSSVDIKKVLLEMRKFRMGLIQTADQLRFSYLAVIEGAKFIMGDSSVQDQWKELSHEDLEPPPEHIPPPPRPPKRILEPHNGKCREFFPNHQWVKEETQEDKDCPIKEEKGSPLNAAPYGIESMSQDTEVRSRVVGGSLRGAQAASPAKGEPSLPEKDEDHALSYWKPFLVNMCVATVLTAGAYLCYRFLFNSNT

[3] = test system: rat hepatic microsomal PTPases; settings: PTPase activity, compound at 50 μM
[4] = 96 h, dose 25 mg/Kg, plasma glucose Day 4, 7 or 14, read-out: % Change Glucose from Vehicle
[5] = dose 25 mg/Kg, read-out: % Change Insulin from Vehicle
[6] = 96 h, plasma glucose Day 4, 7 or 14, read-out: % Change Glucose from Vehicle
[7] = read-out: % Change Insulin from Vehicle
[8] = 96 h, dose 100 mg/Kg, plasma glucose Day 4, 7 or 14, read-out: % Change Glucose from Vehicle
[9] = dose 100 mg/Kg, read-out: % Change Insulin from Vehicle

SMILES | change in vivo at 25 mg/kg [1, 4] [%] | change in vivo at 25 mg/kg [1, 5] [%] | IC50 [2] [nM] | % Change from Control [3] [%] | change in vivo at 100 mg/kg [1, 8] [%] | change in vivo at 100 mg/kg [1, 9] [%] | also measured
C[C@@H](Oc1c(Br)cc(-c2c3ccccc3c(Sc3ccccc3)c3sc4ccccc4c23)cc1Br)C(=O)O [Example 129, (R)-2-[2,6-Dibromo-4-(6-phenylsulfanyl-benzo[b]naphthor[2,3-d]thiophen-11-yl)-phenoxy]-propionic acid] | -14.9 | -54.6 | 46 | -59.03 |  |  | 
CCCCC(Oc1c(Br)cc(-c2c3ccccc3c(Br)c3sc4ccccc4c23)cc1Br)C(=O)O (centres unmarked) [Example 123, 2-[2,6-Dibromo-4-(6-bromo-benzo[b]naphtho[2,3-d]thiophen-11-yl)-phenoxy]-hexanoic acid] |  |  | 82 | -87.44 |  |  | change in vivo at 75 mg/kg [1, 6]: -24%; change in vivo at 75 mg/kg [1, 7]: -40.9%
O=C(O)COc1c(Br)cc(-c2c3ccccc3c(Br)c3sc4ccccc4c23)cc1Br [Example 79, [2,6-Dibromo-4-(6-bromo-benzo[b]naphtho[2,3-d]thiophen-11-yl)-phenoxy]-acetic acid] |  |  | 386 | -82.58 | -22.6 |  | % Change Glucose from Vehicle ([1]; dose 100 mg/Kg, plasma glucose Day 4, 7 or 14, 100 mg/kg): -22.60%
O=C(O)[C@@H](Cc1ccccc1)Oc1c(Br)cc(-c2c3ccccc3c(Sc3ccccc3)c3sc4ccccc4c23)cc1Br [Example 128, (R)-2-[2,6-Dibromo-4-(6-phenylsulfanyl-benzo[b]naphtho[2,3-d]thiophen-11-yl)-phenoxy]-3-phenyl-propionic acid] | 3.1 | -38.8 | 25 | -50.94 |  |  | 
O=C(O)COc1c(Br)cc(-c2c3ccccc3c(Br)c3oc4ccccc4c23)cc1Br [Example 215, [2,6-Dibromo-4-(6-bromo-benzo[b]naphtho[2,3-d]furan-11-yl)-phenoxy]-acetic acid] |  |  | 490 | -80.93 | -39.4 | -4.66 | 
CC(C)c1cc(-c2c3ccccc3c(Br)c3sc4ccccc4c23)cc(C(C)C)c1O[C@H](Cc1ccccc1)C(=O)O [Example 139, (2R)-2-[4-(6-Bromo-benzo[b]naphtho[2,3-d]thiophen-11-yl)-2,6-diisopropyl-phenoxy)-3-phenyl-propionic acid] | -18.5 | -22 | 61 | -64.89 |  |  | 
CC(C)c1cc(-c2c3ccccc3c(Br)c3sc4ccccc4c23)cc(C(C)C)c1OCC(=O)O [Example 89, [4-(6-Bromo-benzo[b]naphtho[2,3-d]thiophen-11-yl)-2,6-diisopropyl-phenoxy)-acetic acid] |  |  | 126 | -61.04 |  |  | change in vivo at 10 mg/kg [1, 6]: -24.9%
COc1cc(-c2c3ccccc3c(Br)c3sc4ccccc4c23)cc(Br)c1O[C@H](Cc1ccccc1)C(=O)O [Example 194, (R)-2-[2-Bromo-4-(6-bromo-benzo[b]naphtho[2,3-d]thiophen-11-yl)-6-methoxy-phenoxy]-3-phenyl-propionic acid] | -32 |  | 217 | -79.35 |  |  | 
O=C(O)[C@@H](Cc1ccccc1)Oc1c(F)ccc(-c2c3ccccc3c(Br)c3sc4ccccc4c23)c1F [Example 203, (R)-2-[]3-(6-Bromo-benzo[b]naphtho[2,3-d]thiophen11-yl)-2.6-difluoro-phenoxyl-3-phenyl-propionic acid] |  |  | 402 | -86.47 | -16.1 | -91 | 
O=C(O)[C@@H](CCc1ccccc1)Oc1c(Br)cc(-c2c3ccccc3c(Br)c3sc4ccccc4c23)cc1Br [Example 113] | -0.5 | -55.8 | 45 | -101.01 |  |  | 
Brc1cc(-c2c3ccccc3c(Br)c3sc4ccccc4c23)cc(Br)c1O[C@H](Cc1ccccc1)c1nnn[nH]1 [Example 172, (R)-5-{1-[2,6-Dibromo-4-(6-bromo-benzo[b]naphtho[2,3-d]thiophen-11-yl)-phenoxy]-2-phenyl-ethyl}-1 H-tetrazole] |  |  | 76 | -70.95 | 5.62 | -52 | 
Cc1cc(-c2c3ccccc3c(C)c3sc4ccccc4c23)cc(C)c1O[C@H](Cc1ccccc1)C(=O)O [Example 138, (R)-2-[2,6-Dimethyl-4-(6-methyl-benzo[b]naphtho[2,3-d]thiophen-11-yl)-phenoxy]-3-phenyl-propionic acid] | -13.8 | -91.9 | 636 | -69.13 |  |  | 
O=C(O)[C@@H](Cc1ccccc1)Oc1c(Br)cc(-c2c3ccccc3c(Br)c3sc4ccccc4c23)cc1Br [Example 108, (R)-2-[2,6-Dibromo-4-(6-bromo-benzo[b]naphtho[2,3-d]thiophen-11-yl)-phenoxy]-3-phenyl-propionic acid] |  |  | 61 |  | -45.8 | -72.6 | change in vivo at 10 mg/kg [1, 6]: -26.1%; change in vivo at 50 mg/kg [1, 6]: -34.8%; change in vivo at 75 mg/kg [1, 6]: -49.7%; change in vivo at 10 mg/kg [1, 7]: -30.3%; change in vivo at 50 mg/kg [1, 7]: -84.8%; change in vivo at 75 mg/kg [1, 7]: -89.6%; % Change Insulin from Vehicle ([1]; dose 25 mg/Kg): -71.03%; % Change Glucose from Vehicle ([1]; dose 25 mg/Kg, plasma glucose Day 4, 7 or 14, 25 mg/kg): -25.66%; % Change from Control ([3]; 50 µM): -72.94%
O=C(O)COc1ccc(-c2c3ccccc3c(Br)c3sc4ccccc4c23)cc1 [Example 87] |  |  | 1680 | -63.18 | -15.8 | -88 | 
